The values below are quoted from earlier work in patent US20030018166A1 (priority 2000, published 2003).

Read-outs that look alike come from different tables or passages of the source.

The data set deals with T1, M. avium ICL (UniProt P9WKK7).
T1 construct: The proteins were purified by the 6His-tag attached to the N terminus; fused on or other part: N-terminal 6His tag
T1 sequence (P9WKK7 1-428): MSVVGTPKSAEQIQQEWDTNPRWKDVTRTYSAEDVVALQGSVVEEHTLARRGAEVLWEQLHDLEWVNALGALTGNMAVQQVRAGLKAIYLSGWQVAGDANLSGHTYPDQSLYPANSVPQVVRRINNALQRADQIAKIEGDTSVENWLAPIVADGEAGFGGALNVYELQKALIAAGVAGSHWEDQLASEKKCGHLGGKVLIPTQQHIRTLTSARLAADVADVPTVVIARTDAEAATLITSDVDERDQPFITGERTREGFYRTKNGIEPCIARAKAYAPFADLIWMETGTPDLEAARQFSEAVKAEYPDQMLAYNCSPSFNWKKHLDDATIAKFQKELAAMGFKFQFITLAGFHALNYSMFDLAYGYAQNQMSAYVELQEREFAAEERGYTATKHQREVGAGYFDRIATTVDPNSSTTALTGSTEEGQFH
Particulars: Schloss and Cleland, 1982, cited from earlier work.

With `O=C(O)CC[N+](=O)[O-]` [3-nitropropionate], the Ki (read-out: Ki) was 3 µM.
With `O=C(O)C(=O)CBr` [bromopyruvate, 3-bromopyruvate], the Ki is 120 µM.

The term Ki denotes a dissociation constant, usually derived from enzyme kinetics or from competition with a known ligand.
